Source: patent US4912133A, “BU-3862T antitumor antibiotic” (priority 1988, dated 1990)
Values after ≈ are worked out from the molar mass of the structure shown. Read-outs that look alike come from different tables or passages of the source.

Tests used:
[1] = test system: B16-F10 (murine melanoma) cells; assay: in vitro cytotoxicity against B16-F10 (neutral red staining, 72 hours); assay type: cell-based; conditions: Mus musculus
Experimental: (§1) BU-3862T and diacetyl-, dihydro- and tetrahydro-BU-3862T were tested for in vitro cytotoxicity against several murine and human tumor cell lines and/or for in vivo antitumor activity in mice. […] B16-F10 (murine melanoma), P388 (murine leukemia), L1210 (murine leukemia) and Moser (human colorectal carcinoma) cells were grown to the logarithmic phase in enriched Eagle minimum essential medium (MEM) supplemented with fetal calf serum (FCS, 10%) and kanamycin (60 mcg/ml), and HCT-116 (human colon carcinoma) cells in Maccoy's 5A medium supplemented with FCS (10%), penicillin (100 u/ml) and streptomycin (100 mcg/ml), harvested and inoculated into wells of the 96- or 24-well tissue culture plate with test materials at the concentrations of 1.5×10^5, 1.2×10^4,1.2×10^4, 2.5×10^5 and 3.0×10^5 cells/ml, respectively. They were incubated at 37° C. in humidified atmosphere of 5% CO2 and 95% air for 72 hours. The cytotoxic activities against B16-F10, Moser and HCT-116 cells were colorimetrically determined at 540 nm after staining viable cells with 0.006% neutral red solution. On the other hand, the cytotoxic activities against P388 and L1210 cells were determined by counting the number of viable cells.

[2] = test system: HCT-116 (human colon carcinoma) cells; assay: in vitro cytotoxicity against HCT-116 (neutral red staining, 72 hours); assay type: cell-based
Experimental: as §1

[3] = test system: Moser (human colorectal carcinoma) cells; assay: in vitro cytotoxicity against Moser (neutral red staining, 72 hours); assay type: cell-based
Experimental: as §1

[4] = biological activity of BU-3862T derivatives
[5] = test system: murine and human tumor cell lines
Experimental: as §1

[6] = test system: B16 melanoma; conditions: for minimum effective dose relative to the parent compound: versus BU-3862T; for inhibitory activity against experimental animal tumor systems: e.g. B16 melanoma in mice; for antitumor efficacy against B16 melanoma, in words: ip; for T/C: Table 6, QD × 9
Experimental: (§2) In vivo antitumor activities of BU-3862T and the diacetyl and dihydro derivatives were determined in tumor-bearing BDF1 or CDF1 mice. Male BDF1 mice were intraperitoneally inoculated with 0.5 ml of 10% melanotic melanoma B16 brei and female CDF1 mice were also intraperitoneally inoculated with 0.4 ml of diluted ascitic fluid containing 10^5 lymphoid leukemia L1210 cells or 10^6 lymphocytic leukemia P388 cells.

[7] = test system: P388 (murine leukemia) cells; assay: in vitro cytotoxicity against P388 (viable cell count, 72 hours); assay type: cell-based; conditions: Mus musculus; P388, 72 hours
Experimental: as §1

[8] = test system: L1210 (murine leukemia) cells; assay: in vitro cytotoxicity against L1210 (viable cell count, 72 hours); assay type: cell-based; conditions: Mus musculus; L1210, 72 hours
Experimental: as §1

[9] = test system: DNA synthesis in B16-F10 melanoma cells; assay: inhibition of DNA synthesis in cultured B16-F10 melanoma cells; assay type: cell-based, murine
[10] = test system: RNA synthesis in B16-F10 melanoma cells; assay: inhibition of RNA synthesis in cultured B16-F10 melanoma cells; assay type: cell-based, murine; conditions: Mus musculus, 14C-uridine incorporation, 4 hours + 60 min
[11] = test system: protein synthesis in B16-F10 melanoma cells; assay: inhibition of protein synthesis in cultured B16-F10 melanoma cells; assay type: cell-based, murine
[12] = solubility; assay type: physicochemical
[13] = test system: L1210 leukemia
Experimental: as §2

[14] = test system: P388 leukemia; conditions: at the doses tested
Experimental: as §2

[15] = B16-F10, 72 hours, read-out: IC50
[16] = HCT-116, 72 hours, read-out: IC50
[17] = Moser, 72 hours, read-out: IC50

Question: Which results are given for CC(C)CCCCC(=O)N[C@@H](CO)C(=O)NC(CC(C)C)C(=O)C1(CO)CO1 (some centres unmarked) [Dihydro-BU-3862T]?
Answer: IC50 [1, 15]: 0.0032 µg/mL (≈ 0.00799 µM); IC50 [2, 16]: 0.013 µg/mL (≈ 0.0325 µM); IC50 [3, 17]: 0.038 µg/mL (≈ 0.0949 µM); biological activity, in words [4]: retained the biological activity; cytotoxic potency relative to BU-3862T [5]: approximately half those of BU-3862T; minimum effective dose relative to the parent compound ([6]; Q4D × 3, ip): approximately ten times less active than the parent compound; inhibitory activity against experimental animal tumor systems [6]: exhibit inhibitory activity; antitumor efficacy against B16 melanoma, in words [6]: significant anti-B16 melanoma activity

Question: With C=C(C)CC(NC(=O)[C@H](CO)NC(=O)CCCCC(C)C)C(=O)C1(CO)CO1 (some centres unmarked) [BU-3862T] as the compound, how does the IC50 [1, 15] read?
Answer: Its IC50 is 0.0017 µg/mL (≈ 0.00427 µM).

Question: What about the IC50 [7] of the same compound?
Answer: The IC50 was 0.031 µg/mL (≈ 0.0778 µM).

Question: What about the IC50 [8] of the same compound?
Answer: The IC50 was 0.01 µg/mL (≈ 0.0251 µM).

Question: What about the IC50 [2, 16] of the same compound?
Answer: The IC50 was 0.0097 µg/mL (≈ 0.0243 µM).

Question: What about the IC50 [3, 17] of the same compound?
Answer: The IC50 was 0.016 µg/mL (≈ 0.0402 µM).

Question: What about the “potency on DNA synthesis relative to that on RNA synthesis in terms of IC50 value” ([9]; DNA versus RNA synthesis) of the same compound?
Answer: The value was “over 100 times”.

Question: What about the IC50 ([9]; Mus musculus, B16-F10, 3H-thymidine incorporation, 3.5 hours + 30 min) of the same compound?
Answer: Its IC50 is 0.1 µg/mL.

Question: And the IC50 [10]?
Answer: Its IC50 is 11 µg/mL.

Question: And the IC50 ([11]; Mus musculus, B16-F10, 3H-leucine incorporation, 4 hours + 60 min)?
Answer: Its IC50 is 0.06 µg/mL.

Question: And the “potency on protein synthesis relative to that on RNA synthesis in terms of IC50 value” ([11]; protein versus RNA synthesis)?
Answer: The value was “over 100 times”.

Question: And the solubility ([12]; in benzene and other organic solvents)?
Answer: Its solubility is “practically insoluble”.

Question: And the solubility ([12]; in dimethyl sulfoxide, dimethylformamide, methanol, ethanol, ethyl acetate and chloroform)?
Answer: Its solubility is “readily soluble”.

Question: What about the solubility ([12]; in water) of the same compound?
Answer: Its solubility is “practically insoluble”.

Question: What about the “potency (minimum effective dose) relative to mitomycin C” value ([6]; Q4D × 3, ip) of the same compound?
Answer: Its value is “the same as that of mitomycin C”.

Question: What about the “chemotherapeutic index (ratio of optimal dose to minimum effective dose), intermittent versus consecutive dosing” value ([6]; Q4D × 3 versus QD × 9) of the same compound?
Answer: Its value is “broader therapeutic range”.

Question: And the “maximum T/C value, intermittent versus consecutive dosing” value ([6]; Q4D × 3 versus QD × 9)?
Answer: The value was “better antitumor activity”.

Question: And the T/C ([6]; 0.13 mg/kg/day ip)?
Answer: Its T/C is 123%.

Question: And the T/C ([6]; 0.25 mg/kg/day ip)?
Answer: The T/C was 133%.

Question: And the T/C ([6]; 0.5 mg/kg/day ip)?
Answer: Its T/C is 133%.

Question: What about the T/C ([6]; 0.63 mg/kg/day (so in the source) ip) of the same compound?
Answer: Its T/C is 113%.

Question: And the T/C ([6]; 1.0 mg/kg/day ip)?
Answer: Its T/C is 97%.

Question: What about the T/C ([6]; 2.0 mg/kg/day ip) of the same compound?
Answer: The T/C was “Tox”.

Question: And the “inhibitory activity against experimental animal tumor systems” value [6]?
Answer: Its value is “exhibit inhibitory activity”.

Question: And the “antitumor efficacy against B16 melanoma, in words” value [6]?
Answer: Its value is “excellent therapeutic efficacy against B16 melanoma”.

Question: What about the T/C ([13]; 0.25 mg/kg/day ip, Q3D × 3) of the same compound?
Answer: The T/C was 119%.

Question: What about the T/C ([13]; 1.0 mg/kg/day ip, Q3D × 3) of the same compound?
Answer: Its T/C is 125%.

Question: And the T/C ([13]; 2.0 mg/kg/day ip, Q3D × 3)?
Answer: The T/C was 144%.

Question: What about the T/C ([13]; 4.0 mg/kg/day ip, Q3D × 3) of the same compound?
Answer: Its T/C is “Tox”.

Question: What about the “maximum T/C value” ([13]; L1210 leukemia, ip) of the same compound?
Answer: Its value is 145%.

Question: And the “antitumor activity against L1210 leukemia, in words” value ([13]; ip)?
Answer: The value was “moderate antitumor activity”.

Question: What about the “prolongation of lifespan in P388 leukemia-bearing mice” value [14] of the same compound?
Answer: Its value is “no significant prolongation of lifespan”.

Question: What does the source list for CO[C@@]12[C@H](COC(N)=O)C3=C(C(=O)C(C)=C(N)C3=O)N1C[C@@H]1N[C@@H]12 [Mitomycin C, reference compound]?
Answer: IC50 ([1]; B16-F10, 72 h): 0.5 µg/mL (≈ 1.5 µM); IC50 ([2]; HCT-116, 72 h): 0.8 µg/mL (≈ 2.39 µM); IC50 ([3]; 72 h): 1.2 µg/mL (≈ 3.59 µM); T/C ([13]; 0.25 mg/kg/day ip, QD × 3): 125%; T/C ([13]; 0.5 mg/kg/day ip, QD × 3): 131%; T/C ([13]; 1.0 mg/kg/day ip, QD × 3): 138%; T/C ([13]; 2.0 mg/kg/day ip, QD × 3): 163%

Question: With C=C(C)CC(NC(=O)[C@H](COC(C)=O)NC(=O)CCCCC(C)C)C(=O)C1(COC(C)=O)CO1 (some centres unmarked) [Diacetyl-BU-3862T] as the compound, how does the IC50 [1, 15] read?
Answer: Its IC50 is 0.003 µg/mL (≈ 0.00622 µM).

Question: And the IC50 [2, 16]?
Answer: Its IC50 is 0.017 µg/mL (≈ 0.0352 µM).

Question: And the IC50 [3, 17]?
Answer: Its IC50 is 0.044 µg/mL (≈ 0.0912 µM).

Question: What about the “biological activity, in words” value [4] of the same compound?
Answer: Its value is “retained the biological activity”.

Question: And the “cytotoxic potency relative to BU-3862T” value [5]?
Answer: Its value is “approximately half those of BU-3862T”.

Question: What about the “minimum effective dose relative to the parent compound” value ([6]; Q4D × 3, ip) of the same compound?
Answer: Its value is “approximately ten times less active than the parent compound”.

Question: And the “inhibitory activity against experimental animal tumor systems” value [6]?
Answer: The value was “exhibit inhibitory activity”.

Question: And the “antitumor efficacy against B16 melanoma, in words” value [6]?
Answer: The value was “significant anti-B16 melanoma activity”.

Question: Which IC50 [1, 15] does the source give for CC(C)CCCCC(=O)N[C@@H](CO)C(=O)NC(CC(C)C)C(=O)C(CO)CO (some centres unmarked) [Tetrahydro-BU-3862T] here?
Answer: The IC50 was 0.53 µg/mL (≈ 1.32 µM).

Question: And the IC50 [2, 16]?
Answer: Its IC50 is > 1 µg/mL.

Question: And the IC50 [3, 17]?
Answer: Its IC50 is > 1 µg/mL.

Question: What about the “biological activity, in words” value [4] of the same compound?
Answer: Its value is “devoid of the activity”.

Question: What about the “cytotoxic activity compared with BU-3862T, diacetyl and dihydro derivatives” value [5] of the same compound?
Answer: The value was “significantly less active than the above compounds”.
